# Experimental data from patent publication US11358989B2, “Apratyramide therapeutic agents and methods of treatment” (University of Florida Research Foundation, Incorporated, priority 2017, dated 2022).
# Entries after “also recorded” stand apart in the source; their conditions may differ.
# Legend:
# VEGF-A [1] = assay: VEGF-A transcript level in HCT116 cells (RT-qPCR); type: cell-based, human; conditions: 16 h
# Description: (§1) Human keratinocyte HaCaT cells and human colon cancer HCT116 cells were cultured in Dulbecco's modified Eagle's medium (DMEM) supplemented with 10% fetal bovine serum at 37° C. humidified air and 5% CO2. Human normal colon (CCD-18Co) cells (ATCC) were cultured in Eagle's minimal essential medium (EMEM) supplemented with 10% fetal bovine serum at 37° C. humidified air and 5% CO2. Human Umbilical Vein Endothelial Cells (HUVEC, cat #CC-2519, Lonza) were cultured in EGM (Lonza cat #CC-3124) under the same condition.
# (§2) qPCR after reverse transcription (RT-qPCR) was performed on a 25 μL reaction solution containing a 0.3 μL aliquot of cDNA, 12.5 μL of TaqMan gene expression assay mix, 1.25 μL of probes, and 11 μL RNase-free water. qPCR was carried out on an ABI 7300 sequence detection system using the thermocycler program: 2 min at 50° C., 10 min at 95° C., and 15 s at 95° C. (40 cycles) and 1 min at 60° C. Each experiment was performed in triplicate. VEGF-A (Hs00900055_m1), PDGFB (Hs00266645_m1) and bFGF (Hs00966522_m1) were used as target genes, while GAPDH (Hs02758991_g1) was used as endogenous control. Graphs and data analysis were performed using the Prism software and analyzed using unpaired t test.
# ATF4 = ATF4 transcript (microarray) and protein (immunoblot) in HaCaT cells; type: cell-based, human
# Description: (§3) HaCaT cells were seeded in 6-well clear bottom plate the day before treatment. The next day, cells were treated with 1 or solvent control (DMSO). 24 h later, whole cell lysates were collected using PhosphoSafe buffer (EMD Chemicals, Inc, Gibbstown, N.J.). Protein concentrations were measured with the BCA Protein Assay kit (Thermo Fisher Scientific, Rockford, Ill.). Lysates containing equal amounts of protein were separated by SDS polyacrylamide gel electrophoresis (4-12%), transferred to polyvinylidene difluoride membranes, probed with primary and secondary antibodies, and detected with the SuperSignal West Femto Maximum Sensitivity Substrate (Thermo Fisher Scientific). BIP, IRE1, β-actin and secondary anti-mouse and rabbit antibodies were from Cell Signaling Technology, Inc (Danvers, Mass.). ATF4 and ORP150 antibodies were obtained from Santa Cruz (Calif.).
# (§4) RNA was analyzed using a NanoDrop spectrophotometer and Agilent 2100 Bioanalyzer to determine the RNA concentration and quality, respectively. RNA samples were processed using the GeneChip WT PLUS Reagent Kit (Affymetrix, Santa Clara, Calif.) according to the manufacturer's instruction. In brief, 250 ng of RNA were used for cDNA synthesis by reverse transcription, and the cDNA was utilized as a template for the biotin-labeled RNA prepared by in vitro transcription reaction. […]
# VEGF-A [2] = assay: VEGF-A mRNA in ablated rabbit corneas, ex vivo organ culture; conditions: ablated rabbit corneas ex vivo, 25, 50 or 100 μM, 18 h
# Description: The central 6 mm diameter area of corneas of twelve fresh rabbit globes (Pelfreeze) was ablated to a total depth of 155 microns using a Nidek excimer laser in phototherapeutic keratectomy mode. Ablated corneas were then surgically dissected from the rabbit globes using sterile scalpel and forceps, grasping only the scleral rims and not the clear cornea. The corneas were cultured in DMEM/F-12 1:1 (Thermo Fisher) containing 40 mM HEPES, 10% FBS, 0.01% dextran 40 (Tokyo Chemical Industry, Co., Ltd.) and 0.025% chondroitin sulfate (Chem-Impex International, Inc.) in 6-well plates. Twelve corneas were randomly distributed into four groups (three corneas in each group): DMSO, 25 μM, 50 μM or 100 μM apratyramide. […]
# The central scar-like tissue from each cornea was collected using an 8 mm punch biopsy. […] The purified cDNA was then quantified using nanodrop and used to generate a standard curve. Serial 10-fold dilutions of the quantified cDNA amplicon were subjected to RT-qPCR using SYBR Select Master Mix (Applied Biosystems). […] The mass-normalized Ct values for the apratyramide treatment groups and DMSO control group (n=3 biological replicates per group) were analyzed by a one-way ANOVA (α=0.05, Microsoft Excel 2010, Analysis Tool Pack) followed by Tukey's HSD post hoc test manually calculated in Excel 2010 (FIG. 8).
# ORP150 = ORP150 transcript (microarray) and protein (immunoblot) in HaCaT cells; type: cell-based, human
# Description: as §3, §4
# VEGF-A [3] = assay: VEGF-A transcript level in HaCaT cells (RT-qPCR); type: cell-based, human; conditions: for VEGF-A mRNA level induction: 30 μM; for increase of VEGF-A transcript levels: 16 h
# Description: as §1
# HaCaT cells were seeded in 6-well plates at a density of 2×10^5 per well and incubated further for 24 h in supplement-free medium prior to treatment. […] Total RNA was quantified using NanoDrop 2000. From 2 μg of total RNA, cDNA synthesis was done using SuperScript II Reverse Transcriptase (Invitrogen, Carlsbad, Calif.) and oligo (dT) (Invitrogen).
# as §2
# HaCaT cells [4] = assay: Transcriptome profiling of HaCaT cells (Human Transcriptome Array 2.0, IPA); type: cell-based
# Description: (§5) HaCaT cells were seeded in 6-well plates at a density of 2×10^5 per well and incubated further for 24 h in supplement-free medium prior to treatment. RNA was isolated at 3, 12 or 16 h post treatment using the RNeasy mini kit (QIAGEN, Valencia, Calif.). Total RNA was quantified using NanoDrop 2000. From 2 μg of total RNA, cDNA synthesis was done using SuperScript II Reverse Transcriptase (Invitrogen, Carlsbad, Calif.) and oligo (dT) (Invitrogen).
# as §4, with “reaction. The labeled RNA was further purified, fragmented, and hybridized with rotation at 45° C. for 16 h to the GeneChip™ Human Transcriptome Array 2.0. The arrays were washed and stained using the GeneChip Hybridization Wash and Stain kit on an Affymetrix Fluidics Station 450. The chips were scanned using a GeneChip 7G Scanner.” for “reaction.”
# IRE1 = IRE1 transcript (microarray) and protein (immunoblot) in HaCaT cells; type: cell-based, human
# Description: as §3, §4
# CCD-18Co cells = assay: Cell viability assay (MTT), CCD-18Co; type: cell-based, human; conditions: 48 h
# Description: as §1
# (§6) Cells were seeded in a 96-well clear bottom plate, and 24 h later cells were treated with various concentrations of the apratyramide or solvent control (DMSO). After 48 h of incubation, cell viability was detected using MTT according to the manufacturer's instructions (Promega, Madison, Wis.). Nonlinear regression analysis was carried out using GraphPad Prism software for IC50 value calculations.
# VEGF-A [5] = assay: Measurement of human VEGF-A secretion from HaCaT cells (AlphaLISA); type: cell-based; conditions: 24 h
# Description: as §1
# HaCaT cells were seeded in a 96-well clear bottom plate. Cells were treated with various concentrations of apratyramide or solvent control (DMSO). After 24 h incubation, culture supernatants were collected for detection of VEGF-A using AlphaLISA kits (PerkinElmer, Waltham, Mass.) following the manufacturer's instruction. Briefly, acceptor bead and anti-VEGF-A antibody were incubated with the supernatants for 60 min, donor beads were added later and incubated for another 30 min. Signal was detected using Envision (PerkinElmer). Levels of VEGF-A (pg/mL) were calculated using a standard curve and then normalized based on cell numbers.
# HUVECs = assay: In vitro angiogenesis assay (matrigel, HUVECs, HaCaT conditioned medium); type: cell-based, human; conditions: HUVECs 14 h, vs CM-DMSO
# Description: HaCaT cells were seeded in 12-well plates in complete growth medium the day before treatment. The next day, the medium was replaced with fresh medium followed by the treatment of 1 or solvent control. After 24 h or incubation, the conditioned medium was collected for the in vitro angiogenesis assay.
# HUVECs (Lonza) were used at passage 4 for this assay. In vitro Angiogenesis Assay Kit (Chemicon) was used according to the manufacturer's recommendation. Briefly, an ice-cold mixture of ECMatrix was transferred into a precooled 96-well plate. After the matrix solution had solidified (>1 h incubation at 37° C., 10,000 cells were mixed with the CM or EGM with or without the presence of VEGF-A protein, 100 ng/mL and plated into each well. After incubation at 37° C. for 14 h, images were captured for each well using a Nikon inverted microscope equipped with NIS-Elements software. Branch point counting was used as quantification method. Three random microscope view-fields were counted and the number of branch points was averaged for each well. Branch point for each group was calculated by averaging eight replicates from two independent experiments.
# HaCaT cells [6] = assay: Cell viability assay (MTT), HaCaT; type: cell-based, human; conditions: 24 h
# Description: as §1
# Cells were seeded in a 96-well clear bottom plate, and 24 h later cells were treated with various concentrations of the apratyramide or solvent control (DMSO). […] Nonlinear regression analysis was carried out using GraphPad Prism software for IC50 value calculations.
# PDGFB = PDGFB transcript level in HaCaT cells (RT-qPCR); type: cell-based, human; conditions: 16 h
# Description: as §5, §2
# HCT116 cells = assay: Cell viability assay (MTT), HCT116; type: cell-based, human; conditions: 48 h
# Description: as §1, §6
# bFGF = bFGF transcript level in HaCaT cells (RT-qPCR); type: cell-based, human; conditions: 16 h
# Description: as §5, §2
smiles,measurement,setting,value
"CC[C@H](C)[C@@H](OC(=O)[C@H](Cc1ccc(OC)cc1)N(C)C)C(=O)N[C@H](C(=O)N(C)[C@@H](Cc1ccc(O)cc1)C(=O)N(C)[C@@H](Cc1ccc(O)cc1)C(=O)OC)C(C)C [Compound 1, Apratyramide]",VEGF-A transcript level,VEGF-A [1],up-regulated
same,VEGF-A transcript levels,VEGF-A [1]; fifty micro-molar,doubled
same,ATF4 transcript and protein levels,ATF4,up-regulated; also recorded: activated
same,VEGF-A mRNA in the cornea,VEGF-A [2],dose-dependent increase
same,ORP150 transcript and protein levels,ORP150,up-regulated
same,VEGF-A mRNA level induction,VEGF-A [3]; 4 h,1.7 fold
same,VEGF-A mRNA level induction,VEGF-A [3]; 12 h,greater induction effect
same,increase of VEGF-A transcript levels,VEGF-A [3]; 31.6 μM,5 fold
same,increase of VEGF-A transcript levels,VEGF-A [3]; 50 μM,7 fold
same,VEGF-A in microarray,"HaCaT cells [4]; 30 μM, 12 h",one of the most up-regulated genes
same,microRNAs in microarray,HaCaT cells [4]; 12 h treatment,down-regulation of several microRNAs
same,IRE1 transcript and protein levels,IRE1,up-regulated
same,effects on cell viability,CCD-18Co cells,negligible effects
same,increase of VEGF-A secretion,VEGF-A [5]; 31.6 μM,1.3 fold
same,increase of VEGF-A secretion,VEGF-A [5]; 50 μM,1.5 fold
same,angiogenesis (tube-like structure formation) with conditioned medium,HUVECs; HaCaT culture treated with 30 μM for 24 h,rescued
same,angiogenesis (tube-like structure formation) with conditioned medium,HUVECs; HaCaT culture treated with 50 μM for 24 h,rescued
same,cytotoxicity,HaCaT cells [6]; 31.6 μM,without causing cytotoxicity
same,cell viability,HaCaT cells [6]; 50 μM,Around ninety-percent
same,PDGFB transcript level,PDGFB,stimulated
same,cytotoxicity (antiproliferative effect),HCT116 cells,minimal cytotoxicity
same,bFGF transcript level,bFGF,stimulated
